As a reminder, the Ki is the dissociation constant of the complex between target and ligand, obtained from inhibition or displacement.

Here are results for 3 molecules from publication PMC3953502 (ACS chemical biology, 2013).

The target in one test is T1, ML-IAP (Homo sapiens, UniProt Q96CA5).
T1 sequence (Q96CA5 63-179 limits assumed): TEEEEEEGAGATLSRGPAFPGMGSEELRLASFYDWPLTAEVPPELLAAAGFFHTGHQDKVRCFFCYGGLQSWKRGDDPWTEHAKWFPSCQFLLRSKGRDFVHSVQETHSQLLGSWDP
The test is described as follows: Fluorescence polarization competition assay, ML-IAP BIR. Type of test: binding. Background: Fluorescence polarisation rises when a labelled molecule tumbles more slowly, as on binding a larger partner.

A further test relates to Ovarian Cancer Cells. The note with it: 50 ng/mL TRAIL; cited from earlier work.
The test system of test [1] is MDA-MB-231 breast adenocarcinoma cells. The test is described as follows: MDA-MB-231 cell viability, sensitization to TRAIL. Type of test: cell-based. The note with it: MDA-MB-231 cells, TRAIL alone at maximum dose of 100 ng/mL.

At ML-IAP, `CN[C@@H](C)C(=O)N[C@H](C(=O)N1CCC[C@H]1C(=O)Nc1snnc1-c1ccccc1)C1CCCCC1` [GDC-0152] yielded a Ki of 41 nM.

Take `CN[C@@H](C)C(=O)N[C@H](C(=O)N1CC[C@H]2CCN(CCc3ccccc3)C[C@H]21)C1CCCCC1` [LBW242]: in the test on Ovarian Cancer Cells, the “increase in LBW242-induced cell death with addition of TRAIL” value is 2- to 3 fold.

B1: TRAIL: Tumor necrosis factor-related apoptosis-inducing ligand, member of the TNF family of cytokines (protein, UniProt P50591 1-281, looked up)
Tumor necrosis factor ligand …: MAMMEVQGGPSLGQTCVLIVIFTVLLQSLCVAVTYVYFTNELKQMQDKYSKSGIACFLKEDDSYWDPNDEESMNSPCWQVKWQLRQLVRKMILRTSEETISTVQEKQQNISPLVRERGPQRVAAHITGTRGRSNTLSSPNSKNEKALGRKINSWESSRSGHSFLSNLHLRNGELVIHEKGFYYIYSQTYFRFQEEIKENTKNDKQMVQYIYKYTSYPDPILLMKSARNSCWSKDAEYGLYSIYQGGIFELKENDRIFVSVTNEHLIDMDHEASFFGAFLVG
For B1, the “cells undergone cell death” value in test [1] came out at 30%.
